# Test results from US20060079550A1, “Amino acid derivatives useful for the treatment of alzheimer's disease” (priority 2001, published 2006).
# Biological target: aspartyl proteases, in particular, beta-secretase
# Experiment: Ki of the compounds listed in Tables 1 and 2 (no method described)
# Assay type: biochemical
# Conditions: Table 1, compounds of formula Ia, W is -(CH2)n-
row,Molecule,Ki
1,"Cc1ccc(S(=O)(=O)N(CC(C)C)[C@@H](CCCCNC(=O)OCC2c3ccccc3-c3ccccc32)C(=O)O)cc1 [Compound No. 67, Nα-isobutyl-Nα-(4-methylbenzenesulfonyl)-Nε-(9-fluorenylmethoxycarbonyl)-L-lysine]",0.0043 µM
2,"O=C(N[C@H](CO)CCCCNS(=O)(=O)c1ccc(Br)cc1)OCC1c2ccccc2-c2ccccc21 [Compound No. 22, (2S)-(9-fluorenylmethoxycarbonylamino)-6-(4-bromobenzenesulfonylamino)-1-hexanol]",> 6 µM
3,"O=C(N[C@@H](CCCCNS(=O)(=O)c1ccc(Br)cc1)C(=O)O)c1cnc2cc(C(F)(F)F)ccc2c1O [Compound No. 23, Nα-(4-hydroxy-7-trifluoromethylquinoline-3-carbonyl)-Nε-(4-bromobenzenesulfonyl)-L-lysine]",> 50 µM
4,"Nc1ccc(S(=O)(=O)NCCCC[C@H](NC(=O)OCC2c3ccccc3-c3ccccc32)C(=O)O)cc1 [Compound No. 52, Nε-(4-aminobenzenesulfonyl)-Nα-(9-fluorenylmethoxycarbonyl)-L-lysine]",6.8 µM
5,"Cc1ccc(S(=O)(=O)N(CC(C)C)C(CCCCNC(=S)CCc2ccccc2)C(=O)O)cc1 (racemic) [Compound No. 153, Nα-isobutyl-Nα-(4-methylbenzenesulfonyl)-Nε-dihydrothiocinnamoyi-DL-lysine]",0.151 µM
6,"O=C(N[C@@H](CCCCNS(=O)(=O)c1ccc([N+](=O)[O-])cc1)C(=O)O)OCC1c2ccccc2-c2ccccc21 [Compound No. 50, Nε-(4-nitrobenzenesulfonyl)-Nα-(9-fluorenylmethoxycarbonyl)-L-lysine]",6 µM
7,"COC(=O)[C@H](CCCCNS(=O)(=O)c1ccc(Br)cc1)NC(=O)OCC1c2ccccc2-c2ccccc21 [Compound No. 15, Nα-(9-fluorenylmethoxycarbonyl)-Nε-(4-bromobenzenesulfonyl)-L-lysine Methyl Ester]",47 µM
8,"COc1ccc(C=CC(=O)NCCCC[C@@H](C(=O)O)N(CC(C)C)S(=O)(=O)c2ccc([N+](=O)[O-])cc2)cc1 [Compound No. 113, Nα-isobutyl-Nα-(4-nitrobenzenesulfonyl)-Nε-(4-methoxycinnamoyl)-L-lysine]",> 0.3 µM
9,Cc1ccc(S(=O)(=O)N(CC(C)C)C(CCCCNC(=O)C2c3ccccc3-c3ccccc32)C(=O)O)cc1 (stereo not shown) [compound 83],0.105 µM
10,"CC(C)CN([C@@H](CCCCNC(=O)CSc1ccccc1)C(=O)O)S(=O)(=O)c1ccc([N+](=O)[O-])cc1 [Compound No. 154, Nα-isobutyl-Nα-(4-Tnitrobenzenesulfonyl)-Nε-phenylthioacetyl-L-lysine]",0.0102 µM
11,"O=C(NCCCC[C@H](NS(=O)(=O)c1ccc(Cl)cc1)C(=O)O)OCC1c2ccccc2-c2ccccc21 [Compound No. 72, Nα-(4-chlorobenzenesulfonyl)-Nε-(9-fluorenylmethoxycarbonyl)L-lysine]",2.39 µM
12,"O=C(N[C@@H](CCCCNS(=O)(=O)c1ccccc1)C(=O)O)OCC1c2ccccc2-c2ccccc21 [Compound No. 49, Nε-benzenesulfonyl-Nα-(9-fluorchylmethoxycarbonyl)-L-lysine]",8.9 µM
13,"CC(C)CN([C@@H](CCCCNC(=O)C=Cc1ccc2c(c1)OCO2)C(=O)O)S(=O)(=O)c1ccc([N+](=O)[O-])cc1 [Compound No. 163, Nα-isobutyl-Nα-(4-nitrobenzenesulfonyl)-Nε-(3,4-methylenedioxycinnamoyl)-L-lysine]",> 0.3 µM
14,"COc1ccc(CCC(=O)NCCCC[C@@H](C(=O)O)N(CC(C)C)S(=O)(=O)c2ccc(N)cc2)cc1 [Compound No. 120, Nα-isobutyl-Nα-(4-aminobenzenesulfonyl)-Nε-(4-methoxydihydrocinnamoyl)-L-lysine]",0.0124 µM
15,"CC(C)CN([C@@H](CCCCNC(=O)C1c2ccccc2Oc2ccccc21)C(=O)O)S(=O)(=O)c1ccc([N+](=O)[O-])cc1 [Compound No. 96, Nα-isobutyl-Nα-(4-nitrobenzenesulfonyl)-Nε-(9xanthenecarbonyl)-L-lysine]",0.0439 µM
16,"CC(C)CN([C@@H](CCCCNC(=O)OCC1c2ccccc2-c2ccccc21)C(=O)O)S(=O)(=O)c1ccc(N)cc1 [Compound No. 44, Nα-(4-aminobenzenesulfonyl)-Nα-isobutyl-Nε-(9-fluorenylmethoxycarbonyl)-L-lysine]",0.0021 µM

row,Molecule,Ki
1,"O=C(NCCCC[C@H](NS(=O)(=O)c1ccc(Br)cc1)C(=O)O)OCC1c2ccccc2-c2ccccc21 [Compound No. 66, Nα-(4-bromobenzenesulfonyl)-Nε-(9-fluorenylmethoxycarbonyl)-L-lysine]",1.9 µM
2,"O=C(N[C@@H](CCCCNS(=O)(=O)c1ccc(F)cc1)C(=O)O)OCC1c2ccccc2-c2ccccc21 [Compound No. 55, Nε-(4-fluorobenzenesulfonyl)-Nα-(9-fluorenylmethoxycarbonyl)-L-lysine]",6.5 µM
3,"Cc1ccc(S(=O)(=O)N(CC(C)C)C(CCCCNC(=O)OCC2c3ccccc3-c3ccccc32)C(=O)NO)cc1 [Compound No. 141, (2R,2S)-N-isobutyl-N-(4-methylbenzenesulfonylamino)-6-(9-fluorenylmethoxycarboxylamino)-1-hydroxylhexamide]",0.245 µM
4,"O=C(CC1c2ccccc2-c2ccccc21)N[C@@H](CCCCNS(=O)(=O)c1ccc(Br)cc1)C(=O)O [Compound No. 30, Nα-(9-fluorenemethylcarbonyl)-Nε-(4-bromobenzenesulfonyl)-L-lysine]",71 µM
5,"CC(C)CN([C@@H](CCCCNC(=O)OCC1c2ccccc2-c2ccccc21)C(=O)O)S(=O)(=O)c1cccc2ccccc12 [Compound No. 8, Nα-isobutyl-Nα-(1-naphthalenesulfonyl)-Nε-(9-fluorenylmethoxycarbonyl)-L-lysine]",0.0549 µM
6,"Nα-(9-fluorenylmethoxycarbonyl)-L-lysyl-Nα-(9-fluorenylmethoxy-carbonyl)-Nε-(2,4,6trimethylbenzenesulfonyl)-L-lysine [compound 26]",63 µM
7,"Cc1ccc(S(=O)(=O)N(CC(C)C)C(CCCCNC(=O)OCC2c3ccccc3-c3ccccc32)C(N)=O)cc1 [Compound No. 125, (2R,2S)-N-isobutyl-N-(4-methylbenzenesulfonylamino)-6-(9-fluorenylmethoxycarboxylamino)-1-hexanamide]",0.107 µM
8,"Cc1cc(C)c(S(=O)(=O)NCCCC[C@H](NC(=O)OCC2c3ccccc3-c3ccccc32)C(=O)O)c(C)c1 [Compound No. 27, Nε-(2,4,6-trimethylbenzenesulfonyl)-Nα-(9-fluorenylmethoxycarbonyl)-L-lysine]",> 50 µM
9,"CC(C)CN(C(CCCCNC(=O)OCC1c2ccccc2-c2ccccc21)C(=O)O)S(=O)(=O)c1ccc(F)cc1 (racemic) [Compound No. 3, Nα-isobutyl-Nα-(4-fluorobenzenesulfonyl)-Nε-(9-fluorenylmethoxycarbonyl)-DL-lysine]",0.0174 µM
10,"O=C(N[C@@H](CCCCNS(=O)(=O)c1ccc(Br)cc1)C(=O)O)c1ccccc1 [Compound No. 65, Nα-benzoyl-Nε-(4-bromobenzenesulfonyl)-L-lysine]",> 50 µM
11,"O=C(N[C@@H](CCCCNS(=O)(=O)c1ccc(Br)cc1)C(=O)O)C1c2ccccc2-c2ccccc21 [Compound No. 38, Nα-(9-fluorenecarbonyl)-Nε-(4-bromobenzenesulfonyl)-L-lysine]",4.7 µM
12,"CC(C)CN([C@@H](CCCCNC(=O)C=Cc1cccc([N+](=O)[O-])c1)C(=O)O)S(=O)(=O)c1ccc([N+](=O)[O-])cc1 [Compound No. 108, Nα-isobutyl-Nα-(4-nitrobenzenesulfonyl)-Nε-(3-nitrocinnamoyl)-L-lysine]",> 0.3 µM
13,"Cc1ccc(S(=O)(=O)NCCC[C@H](NC(=O)OCC2c3ccccc3-c3ccccc32)C(=O)O)cc1 [Compound No. 149, Nδ-(4-methylbenzenesulfonyl)-Nα-(9-fluorenylmethoxycarbonyl)-L-ornithine]",10.1 µM
14,"CC(C)CN([C@@H](CCCCNC(=O)CCc1ccccc1)C(=O)O)S(=O)(=O)c1ccc(N)cc1 [Compound No. 158, Nα-isobutyl-Nα-(4-aminobenzenesulfonyl)-Nε-dihydrocinnamoyl-L-lysine]",> 0.3 µM
15,"CC(C)c1cc(C(C)C)c(S(=O)(=O)NCCCC[C@H](NC(=O)OCC2c3ccccc3-c3ccccc32)C(=O)O)c(C(C)C)c1 [Compound No. 25, Nε-(2,4,6-triisopropylbenzencsulfonyl)-Nα-(9-fluorenylmethoxycarbonyl)-L-lysine]",> 3.1 µM
